Earlier results as cited in US20050255150A1 (priority 2004, published 2005).

Details: in vivo

For COc1ccc2c3c1O[C@H]1[C@@H](O)C=C[C@H]4[C@@H](C2)N(C)CC[C@@]341 [Codeine], the “Intramuscular Administration equivalent of 10 mg of intramuscular morphine in 24 hours” value (“Intramuscular Administration equivalent” below) is given as 130 mg and the “Oral Administration equivalent of 10 mg morphine in 24 hours” value (po) is given as 200 mg.

In the case of CC(=O)Oc1ccc2c3c1O[C@H]1[C@@H](OC(C)=O)C=C[C@H]4[C@@H](C2)N(C)CC[C@@]341 [Heroin], the “Intramuscular Administration equivalent” value is listed as 5 mg and the “Oral Administration equivalent of 10 mg morphine in 24 hours” value (po) is listed as 60 mg.

For CCOC(=O)C1(c2ccccc2)CCN(C)CC1 [Meperidine], the “Intramuscular Administration equivalent” value is listed as 75 mg.

In the case of CCC(=O)C(CC(C)N(C)C)(c1ccccc1)c1ccccc1 (centres unmarked) [Methadone], the “Intramuscular Administration equivalent” value is given as 10 mg and the “Oral Administration equivalent of 10 mg morphine in 24 hours” value (po) is given as 20 mg.

In the case of CN1CC[C@]23c4c5ccc(O)c4O[C@H]2[C@@H](O)C=C[C@H]3[C@H]1C5 [Morphine], the “Intramuscular Administration equivalent” value is listed as 10 mg, the “Oral Administration equivalent of 10 mg morphine in 24 hours” value (po) is listed as 60 (30 mg) and the “Oral Administration equivalent of 10 mg morphine in 24 hours (value in brackets)” value (po) is listed as 60 (30 mg).

For COc1ccc2c3c1O[C@H]1C(=O)CC[C@@]4(O)[C@@H](C2)N(C)CC[C@]314 [Oxycodone], the “Intramuscular Administration equivalent” value is given as 15 mg and the “Oral Administration equivalent of 10 mg morphine in 24 hours” value (po) is given as 30 mg.

For CN1CC[C@]23c4c5ccc(O)c4O[C@H]2C(=O)CC[C@@]3(O)[C@H]1C5 [Oxymorphone], the “Intramuscular Administration equivalent” value is listed as 1 mg and the “Oral Administration equivalent of 10 mg morphine in 24 hours” value (po) is listed as 10 mg.
